Experimental data as given in patent US20220227796A1, “EGFR INHIBITORS, COMPOSITIONS AND METHODS THERE OF” (Betta Pharmaceuticals Co., Ltd., priority 2019, published 2022).
Counter-ions that a name gives are not always drawn.

How the values were obtained:
HCC827(Δ19del) = assay: HCC827 cells proliferation assay; type: cell-based; details: Homo sapiens, HCC827; cell proliferation, 72 h, CellTiter Glo; class symbols; read-out: HCC827 IC50
Protocol: (§1) Test 3 H1975 and HCC827 Cells Proliferation Assay
(§2) a) The medium was preheated in a 37° C. water bath in advance.
(§3) b) Remove the cryogenic vials from the liquid nitrogen tank, quickly put it into a 37° C. water bath, and completely melt it in 1 min.
(§4) c) Transfer the cell suspension to a 15 mL centrifuge tube containing 8 mL medium, centrifuge 1000 rpm, 5 min.
(§5) d) Discard the supernatant, resuspend the cells in 1 mL medium, and transfer to a 75 cm^2 flask containing 15 mL medium, culture the cells in an incubator at 37° C., 5% CO2.
(§6) b) Collect cell to a 15 mL centrifuged tube, centrifuge at 1000 rpm for 5 min. Discard the supernatant, count, and make the cell density at 1×10^4 cells/mL, then place it in a 37° C., 5% CO2 incubator.
(§7) b) The above compound solution was diluted 1:20 times with culture medium to prepare a 10 fold working solution;
(§8) a) Take cells in log phase growth, centrifuge at 1000 rpm for 5 min, then resuspend the cells with culture medium, then count cells;
(§9) b) Cells were seeded to 96-well cell culture plate with density at 2000 cells/well (suitable for H1975 cell) and at 2500 cells/well (suitable for HCC827 cell);
(§10) The blank control well was a culture medium (0.5% DMSO);
(§11) b) The cells were incubated for an additional 72 h in the incubator.
(§12) a) Remove the 96-well cell culture plate and add 50 μl of CTG reagent (CellTiter Glo kit, promega, Cat #G7573).
(§13) b) Plate was shaked for 2 min and then let it cool for 10 min at room temperature.
(§14) c) The Luminescence signal value was read using a PerkinElmer reader.
(§15) Experimental Data Analysis
(§16) Data were analyzed using GraphPad Prism 6.0 software to obtain a fitted curve of compound activity.
(§17) Y=Bottom+(Top−Bottom)/(1+10^((Log IC50−X)*HillSlope));
(§18) The cells proliferation assay results are expressed with IC50, shown as Table 2.

Ba/F3-L858R/T790M/C797S = target: T1, Ba/F3-L858R/T790M/C797S (Homo sapiens, UniProt P00533, T790M/C797S/L858R, cells depend on it); assay: Ba/F3-L858R/T790M/C797S cells proliferation assay; type: cell-based; details: cell proliferation, 72 h, CellTiter Glo; class symbols; read-out: BaF3 L858R/T790M/C797S IC50
T1 construct: BaF3 L858R/T790M/C797S IC50; other: cell proliferation, 72 h, CellTiter Glo; class symbols; numeric values
Protocol: (§19) a) The medium was preheated in a 37 water bath in advance.
as §3
(§20) c) Transfer the cell suspension to a 15 mL centrifuge tube containing 8 mL medium, centrifuge 1000 rpm, 5 min,
as §5
(§21) a) The medium was preheated in a 37° C.; water bath in advance.
as §6, §7, §8
(§22) b) Cells were seeded to 96-well cell culture plate with density at 2000 cells/well;
as §10, §11, §12, §13, §14, §15, §16
(§23) Y=Bottom+(Top−Bottom)/(1+10^((Log IC50−X)*Hill Slope));
as §18

EGFR L858R = EGFR L858R (Homo sapiens, UniProt P00533, L858R); assay: Kinase assay (mobility shift) for EGFR L858R; type: biochemical
Protocol: (§24) Enzyme reaction protocol are as followed:
(§25) 1. Preparing 1* Kinase buffer as followed.
(§26) 2. Preparing Compound Concentration Gradient: Compounds were tested at a concentration of 300 nM, diluted to 100-fold final concentration in 100% DMSO solution in 96-well plates, and compounds were diluted 3 times with Precision, 10 concentrations. Each concentration of the compound was then further diluted to a 5-fold final concentration of the intermediate dilution solution using 1* Kinase buffer.
(§27) 3. 5 μL of each of the prepared intermediate dilution compounds was separately added to the compound wells of the 384-well plate, and each concentration was tested for duplicate wells; 5 μL of 5% DMSO was added to the negative control wells and the positive control wells, respectively.
(§28) 4. 2.5-fold final concentration of the kinase solution was prepared using 1*Kinase buffer.
(§29) 6. Centrifuge at 1000 rpm for 30 seconds, shake the reaction plate and incubate for 10 minutes at room temperature.
(§30) 8. 10 μL of a 2.5-fold final concentration of a mixed solution of ATP and a substrate was added to initiate the reaction.
(§31) 9. Centrifuge the 384-well plate at 1000 rpm for 30 seconds, mix by shaking, and incubate at room temperature for the corresponding time.
(§32) 10. Add 30 μL of the stop solution to stop the kinase reaction, centrifuge at 1000 rpm for 30 seconds, and mix by shaking.
(§33) 11. Read the conversion rate with Caliper EZ Reader.
(§34) Convert conversion values to inhibition values:
(§35) Percent inhibition=(max−conversion % sample)/(max−min)*100.
(§36) “max” stands for the mean value of the positive control well ratio; “min” stands for the mean value of the negative control well; conversion % sample: sample conversion reading.
(§37) Fit the data in log(inhibitor) vs. response Variable slope of GraphPad Prism 5 to obtain IC50 values.
(§38) Equation used is: Y=Bottom+(Top−Bottom)/(1+(IC50/X)*HillSlope)

H1975(L858R/T790M) = assay: H1975 cells proliferation assay; type: cell-based; details: Homo sapiens, NCI-H1975; cell proliferation, 72 h, CellTiter Glo; class symbols; read-out: H1975 IC50
Protocol: as §1, §2, §3, §4, §5, §6, §7, §8, §9, §10, §11, §12, §13, §14, §15, §16, §17, §18

EGFR Δ19del/T790M/C797S = EGFR Δ19del/T790M/C797S (Homo sapiens, UniProt P00533, T790M/C797S, form not given); assay: Kinase assay (mobility shift) for EGFR Δ19del/T790M/C797S; type: biochemical; details: read-out: EGFR Δ 19del/T790M/C797S IC50
Protocol: as §24, §25, §26, §27, §28, §29, §30, §31, §32, §33, §34, §35, §36, §37, §38

Ba/F3-Δ19del/T790M/C797S = Ba/F3-Δ19del/T790M/C797S (Homo sapiens, UniProt P00533, T790M/C797S, cells depend on it, form not given); assay: Ba/F3-Δ19del/T790M/C797S cells proliferation assay; type: cell-based; details: cell proliferation, 72 h, CellTiter Glo; class symbols; read-out: BaF3 Δ 19del/T790M/C797S IC50
Protocol: as §19, §3, §20, §5, §21, §6, §7, §8, §22, §10, §11, §12, §13, §14, §15, §16, §23, §18

EGFR T790M/L858R = EGFR T790M/L858R (Homo sapiens, UniProt P00533, L858R/T790M); assay: Kinase assay (mobility shift) for EGFR T790M/L858R; type: biochemical
Protocol: as §24, §25, §26, §27, §28, §29, §30, §31, §32, §33, §34, §35, §36, §37, §38

T1 sequence (P00533 whole entry T790M/C797S/L858R): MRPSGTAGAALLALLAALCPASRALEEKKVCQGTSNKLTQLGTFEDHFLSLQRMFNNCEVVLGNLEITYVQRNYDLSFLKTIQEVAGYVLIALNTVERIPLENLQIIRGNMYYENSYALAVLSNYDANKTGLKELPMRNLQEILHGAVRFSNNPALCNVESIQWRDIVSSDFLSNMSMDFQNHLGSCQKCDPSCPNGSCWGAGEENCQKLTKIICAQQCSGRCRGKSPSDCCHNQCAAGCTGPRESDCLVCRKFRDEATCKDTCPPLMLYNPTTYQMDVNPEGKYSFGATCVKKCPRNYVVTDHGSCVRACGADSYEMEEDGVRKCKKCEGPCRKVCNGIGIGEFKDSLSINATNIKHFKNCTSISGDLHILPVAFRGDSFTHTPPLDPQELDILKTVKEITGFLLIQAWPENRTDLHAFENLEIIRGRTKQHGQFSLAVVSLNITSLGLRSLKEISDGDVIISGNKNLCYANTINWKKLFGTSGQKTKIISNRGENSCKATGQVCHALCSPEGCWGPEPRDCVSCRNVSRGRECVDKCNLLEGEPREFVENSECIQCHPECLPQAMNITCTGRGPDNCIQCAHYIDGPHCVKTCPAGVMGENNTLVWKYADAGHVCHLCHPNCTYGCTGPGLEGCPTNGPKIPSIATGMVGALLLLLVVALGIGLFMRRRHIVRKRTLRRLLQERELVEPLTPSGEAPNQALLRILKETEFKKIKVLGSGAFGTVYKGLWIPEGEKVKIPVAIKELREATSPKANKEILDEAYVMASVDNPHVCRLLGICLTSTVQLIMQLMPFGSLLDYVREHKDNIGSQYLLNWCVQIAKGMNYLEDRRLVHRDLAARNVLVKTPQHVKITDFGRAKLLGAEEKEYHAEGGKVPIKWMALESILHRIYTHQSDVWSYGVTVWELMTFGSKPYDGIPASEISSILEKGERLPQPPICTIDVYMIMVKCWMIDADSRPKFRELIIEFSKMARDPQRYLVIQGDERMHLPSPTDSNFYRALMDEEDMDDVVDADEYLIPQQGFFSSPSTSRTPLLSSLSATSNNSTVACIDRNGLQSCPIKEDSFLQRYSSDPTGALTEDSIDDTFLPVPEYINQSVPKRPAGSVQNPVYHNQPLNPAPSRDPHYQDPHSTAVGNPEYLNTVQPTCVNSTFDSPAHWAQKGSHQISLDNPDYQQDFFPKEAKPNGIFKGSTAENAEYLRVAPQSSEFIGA
Ba/F3-Δ19del/T790M/C797S, sequence (P00533 with tags, fused parts or gaps DEL746-750/T790M/C797S, form open): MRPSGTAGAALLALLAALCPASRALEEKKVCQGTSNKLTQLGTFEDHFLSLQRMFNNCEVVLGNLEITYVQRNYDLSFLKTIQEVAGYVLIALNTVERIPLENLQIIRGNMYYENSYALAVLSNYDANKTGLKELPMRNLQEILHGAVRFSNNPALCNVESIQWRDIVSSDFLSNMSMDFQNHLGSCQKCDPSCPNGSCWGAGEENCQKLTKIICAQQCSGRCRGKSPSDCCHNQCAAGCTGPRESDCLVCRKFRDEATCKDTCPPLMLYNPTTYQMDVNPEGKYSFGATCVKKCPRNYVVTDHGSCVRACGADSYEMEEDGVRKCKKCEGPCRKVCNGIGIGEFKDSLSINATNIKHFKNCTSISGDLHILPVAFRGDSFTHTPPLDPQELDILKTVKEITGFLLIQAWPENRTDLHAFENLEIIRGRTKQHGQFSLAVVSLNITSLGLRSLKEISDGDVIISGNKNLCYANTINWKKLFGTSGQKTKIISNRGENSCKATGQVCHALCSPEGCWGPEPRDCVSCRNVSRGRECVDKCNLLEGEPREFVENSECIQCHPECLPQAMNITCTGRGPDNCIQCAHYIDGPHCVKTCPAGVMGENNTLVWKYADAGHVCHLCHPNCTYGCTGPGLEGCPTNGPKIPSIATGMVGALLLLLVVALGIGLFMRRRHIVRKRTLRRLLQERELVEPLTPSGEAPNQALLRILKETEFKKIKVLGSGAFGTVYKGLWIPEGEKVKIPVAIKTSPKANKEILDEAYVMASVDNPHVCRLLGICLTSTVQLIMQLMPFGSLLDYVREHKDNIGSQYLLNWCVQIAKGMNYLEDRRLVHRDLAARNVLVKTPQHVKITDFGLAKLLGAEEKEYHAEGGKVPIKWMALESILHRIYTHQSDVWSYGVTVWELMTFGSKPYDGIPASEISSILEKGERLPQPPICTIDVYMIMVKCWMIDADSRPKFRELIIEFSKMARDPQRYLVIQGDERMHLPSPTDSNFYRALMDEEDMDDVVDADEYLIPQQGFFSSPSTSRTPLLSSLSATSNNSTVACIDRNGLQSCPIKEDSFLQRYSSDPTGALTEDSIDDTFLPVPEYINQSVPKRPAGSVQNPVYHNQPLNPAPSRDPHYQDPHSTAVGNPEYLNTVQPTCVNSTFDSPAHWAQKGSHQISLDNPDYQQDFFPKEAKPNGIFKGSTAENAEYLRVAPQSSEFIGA
EGFR Δ19del/T790M/C797S, sequence (P00533 with tags, fused parts or gaps DEL746-750/T790M/C797S, form open): as above
EGFR L858R, sequence (P00533 25-1210 L858R): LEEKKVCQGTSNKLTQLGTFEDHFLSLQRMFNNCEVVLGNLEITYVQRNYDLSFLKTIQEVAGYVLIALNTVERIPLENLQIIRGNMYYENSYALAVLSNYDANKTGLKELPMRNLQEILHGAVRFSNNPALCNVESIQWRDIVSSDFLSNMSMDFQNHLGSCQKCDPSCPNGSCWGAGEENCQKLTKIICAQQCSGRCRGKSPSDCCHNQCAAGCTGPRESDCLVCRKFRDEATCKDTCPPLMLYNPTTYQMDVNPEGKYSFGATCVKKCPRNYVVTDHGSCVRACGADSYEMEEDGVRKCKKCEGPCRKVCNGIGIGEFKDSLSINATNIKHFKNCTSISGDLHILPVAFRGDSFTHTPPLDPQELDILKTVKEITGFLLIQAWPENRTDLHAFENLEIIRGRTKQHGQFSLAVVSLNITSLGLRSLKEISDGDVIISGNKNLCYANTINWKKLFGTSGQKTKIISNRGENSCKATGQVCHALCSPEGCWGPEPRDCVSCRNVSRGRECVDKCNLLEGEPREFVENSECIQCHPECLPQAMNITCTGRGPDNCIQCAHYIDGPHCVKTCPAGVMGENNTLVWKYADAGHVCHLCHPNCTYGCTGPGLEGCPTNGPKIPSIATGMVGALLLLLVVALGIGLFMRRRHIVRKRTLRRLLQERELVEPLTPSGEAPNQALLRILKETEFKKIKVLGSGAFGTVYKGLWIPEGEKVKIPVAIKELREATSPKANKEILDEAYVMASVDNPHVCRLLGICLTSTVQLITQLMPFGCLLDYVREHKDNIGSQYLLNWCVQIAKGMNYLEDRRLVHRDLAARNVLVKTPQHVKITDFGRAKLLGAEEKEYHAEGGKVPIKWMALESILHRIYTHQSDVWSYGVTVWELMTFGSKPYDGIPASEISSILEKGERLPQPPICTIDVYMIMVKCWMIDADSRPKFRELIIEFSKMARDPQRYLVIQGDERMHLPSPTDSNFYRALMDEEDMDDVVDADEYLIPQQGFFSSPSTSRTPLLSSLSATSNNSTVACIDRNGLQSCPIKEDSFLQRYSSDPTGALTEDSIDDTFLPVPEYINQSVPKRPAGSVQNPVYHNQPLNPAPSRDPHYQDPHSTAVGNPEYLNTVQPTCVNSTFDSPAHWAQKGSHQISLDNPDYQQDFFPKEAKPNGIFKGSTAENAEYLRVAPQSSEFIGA

Compound | IC50 (HCC827(Δ19del)) [nM] | GI50 (Ba/F3-L858R/T790M/C797S) [nM] | IC50 (EGFR L858R) [nM] | IC50 (H1975(L858R/T790M)) [nM] | IC50 (EGFR Δ19del/T790M/C797S) [nM] | GI50 (Ba/F3-Δ19del/T790M/C797S) [nM] | IC50 (EGFR T790M/L858R) [nM]
C=CC(=O)Nc1cc(Nc2ncc(Cl)c(Nc3ccccc3P(C)(C)=O)n2)ccc1N1CCC2(CCC(N(C)C)CC2)CC1 [Compound 1, N-(5-((5-chloro-4-((2-(dimethylphosphoryl)phenyl)amino)pyrimidin-2-yl)amino)-2-(9-(dimethylamino)-3-azaspiro[5.5]undecan-3-yl)phenyl)acrylamide] | < 10 | < 10 | 10 to 100 | < 10 | < 10 | < 10 | < 10
C=C(C)C(=O)Nc1cc(Nc2ncc(Cl)c(Nc3ccccc3P(C)(C)=O)n2)ccc1N1CCC2(CC1)CC(N(C)C)C2 [Compound 7, N-(5-((5-chloro-4-((2-(dimethylphosphoryl)phenyl)amino)pyrimidin-2-yl)amino)-2-(2-(dimethylamino)-7-azaspiro[3.5]nonan-7-yl)phenyl)methacrylamide] | 10 to 50 | 10 to 50 |  |  | < 10 | 10 to 50 | 
CN(C)C/C=C/C(=O)Nc1cc(Nc2ncc(Cl)c(Nc3ccccc3P(C)(C)=O)n2)ccc1N1CCC2(CC1)CC(N(C)C)C2 [Compound 8, (E)-N-(5-((5-chloro-4-((2-(dimethylphosphoryl)phenyl)amino)pyrimidin-2-yl)amino)-2-(2-(dimethylamino)-7-azaspiro[3.5]nonan-7-yl)phenyl)-4-(dimethylamino)but-2-enamide] | 10 to 50 | 10 to 50 |  | 10 to 50 | < 10 | 10 to 50 | 
C=C(F)C(=O)Nc1cc(Nc2ncc(Cl)c(Nc3ccccc3P(C)(C)=O)n2)ccc1N1CCC2(CC1)CC(N(C)C)C2 [Compound 9, N-(5-((5-chloro-4-((2-(dimethylphosphoryl)phenyl)amino)pyrimidin-2-yl)amino)-2-(2-(dimethylamino)-7-azaspiro[3.5]nonan-7-yl)phenyl)-2-fluoroacrylamide] |  | 10 to 50 |  |  | < 10 | 10 to 50 | 
C=CC(=O)Nc1cc(Nc2ncc(Cl)c(Nc3ccc4nccnc4c3P(C)(C)=O)n2)ccc1N1CCC2(CC1)CC(N(C)C)C2 [Compound 10, N-(5-((5-chloro-4-((5-(dimethylphosphoryl)quinoxalin-6-yl)amino)pyrimidin-2-yl)amino)-2-(2-(dimethylamino)-7-azaspiro[3.5]nonan-7-yl)phenyl)acrylamide] | 10 to 50 | < 10 |  | < 10 | < 10 | < 10 | 
C=CC(=O)Nc1cc(Nc2ncc(Br)c(Nc3ccc4nccnc4c3P(C)(C)=O)n2)ccc1N1CCC(N2CCN(C)CC2)CC1 [Compound 12, N-(5-((5-bromo-4-((5-(dimethylphosphoryl)quinoxalin-6-yl)amino)pyrimidin-2-yl)amino)-2-(4-(4-methylpiperazin-1-yl)piperidin-1-yl)phenyl)acrylamide] | 10 to 50 | 10 to 50 |  | 10 to 50 |  | 10 to 50 | 
C=CC(=O)Nc1cc(Nc2ncc(Cl)c(Nc3ccccc3P(C)(C)=O)n2)ccc1N(C)CCN(C)C [Compound 15, N-(5-((5-chloro-4-((2-(dimethylphosphoryl)phenyl)amino)pyrimidin-2-yl)amino)-2-((2-(dimethylamino)ethyl)(methyl)amino)phenyl)acrylamide] | < 10 | 10 to 50 | < 10 | < 10 | < 10 | 10 to 50 | < 10
C=CC(=O)Nc1cc(Nc2ncc(Cl)c(Nc3ccc4ccccc4c3P(C)(C)=O)n2)ccc1N1CCC2(CC1)CC(N(C)C)C2 [Compound 23, N-(5-((5-chloro-4-((1-(dimethylphosphoryl)naphthalen-2-yl)amino)pyrimidin-2-yl)amino)-2-(2-(dimethylamino)-7-azaspiro[3.5]nonan-7-yl)phenyl)acrylamide hydrochloric acid salt] | 10 to 50 | < 10 |  | 10 to 50 | < 10 | < 10 | 
C=CC(=O)Nc1cc(Nc2ncc(Cl)c(Nc3ccc4ncccc4c3P(C)(C)=O)n2)ccc1N1CCC2(CC1)CC(N(C)C)C2 [Compound 30, N-(5-((5-chloro-4-((5-(dimethylphosphoryl)quinolin-6-yl)amino)pyrimidin-2-yl)amino)-2-(2-(dimethylamino)-7-azaspiro[3.5]nonan-7-yl)phenyl)acrylamide] | 10 to 50 | 10 to 50 |  | 10 to 50 | < 10 | < 10 | 
C=CC(=O)Nc1cc(Nc2ncc(Br)c(Nc3ccc4nccnc4c3P(C)(C)=O)n2)ccc1N(C)CCN(C)C [Compound 34, N-(5-(5-bromo-4-(5-(dimethylphosphoryl)quinoxalin-6-ylamino)pyrimidin-2-ylamino)-2-((2-(dimethylamino)ethyl)(methyl)amino)phenyl)acrylamide] | < 10 | < 10 |  | < 10 | < 10 | < 10 | 
C=CC(=O)Nc1cc(Nc2ncc(Br)c(Nc3ccc4nccnc4c3P(C)(C)=O)n2)ccc1N1CCC2(CC1)CC(N(C)C)C2 [Compound 35, N-(5-(5-bromo-4-(5-(dimethylphosphoryl)quinoxalin-6-ylamino)pyrimidin-2-ylamino)-2-(2-(dimethylamino)-7-azaspiro[3.5]nonan-7-yl)phenyl)acrylamide] | < 10 | < 10 |  | < 10 | < 10 | < 10 | 
